Measurements taken from patent US9255100B2 (BAYER INTELLECTUAL PROPERTY GMBH, priority 2010, dated 2016).

The compounds below were run against T1, N-terminally GST-tagged human full length recombinant Mps-1 kinase (Homo sapiens, UniProt P33981) (assay: Mps-1 kinase assay (TR-FRET)). Details: 10 μM ATP, 1 μM peptide substrate, 60 min at 22° C., read-out: Mps1 IC50.
T1 construct: N-terminally GST-tagged human full length recombinant Mps-1 kinase; purchased Invitrogen, Karslruhe, Germany PV4071
T1 sequence (P33981 1-857): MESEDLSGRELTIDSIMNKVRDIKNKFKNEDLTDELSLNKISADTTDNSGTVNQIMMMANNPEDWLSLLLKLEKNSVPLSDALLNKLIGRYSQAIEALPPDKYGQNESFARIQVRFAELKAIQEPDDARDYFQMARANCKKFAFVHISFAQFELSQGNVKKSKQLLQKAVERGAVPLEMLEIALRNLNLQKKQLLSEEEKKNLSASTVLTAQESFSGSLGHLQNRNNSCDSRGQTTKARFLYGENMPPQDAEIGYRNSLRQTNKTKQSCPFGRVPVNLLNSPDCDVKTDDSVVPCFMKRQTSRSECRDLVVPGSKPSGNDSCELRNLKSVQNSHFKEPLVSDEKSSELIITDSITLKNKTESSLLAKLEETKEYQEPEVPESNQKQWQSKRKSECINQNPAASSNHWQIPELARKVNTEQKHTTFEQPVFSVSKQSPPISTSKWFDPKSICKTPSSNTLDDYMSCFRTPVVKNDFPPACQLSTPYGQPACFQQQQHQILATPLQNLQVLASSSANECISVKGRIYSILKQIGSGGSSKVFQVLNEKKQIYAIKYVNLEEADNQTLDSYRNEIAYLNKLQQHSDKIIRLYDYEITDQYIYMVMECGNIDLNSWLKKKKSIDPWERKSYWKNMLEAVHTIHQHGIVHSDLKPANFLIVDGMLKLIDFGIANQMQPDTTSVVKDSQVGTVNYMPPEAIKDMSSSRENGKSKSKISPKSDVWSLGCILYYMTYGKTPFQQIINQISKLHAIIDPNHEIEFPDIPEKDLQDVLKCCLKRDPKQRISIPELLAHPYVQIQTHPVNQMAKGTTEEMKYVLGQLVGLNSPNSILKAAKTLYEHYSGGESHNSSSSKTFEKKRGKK
Format: biochemical
Experimental: The human kinase Mps-1 phosphorylates a biotinylated substrate peptide. Detection of the phosphorylated product is achieved by time-resolved fluorescence resonance energy transfer (TR-FRET) from Europium-labelled anti-phospho-Serine/Threonine antibody as donor to streptavidin labelled with cross-linked allophycocyanin (SA-XLent) as acceptor. Compounds are tested for their inhibition of the kinase activity.
N-terminally GST-tagged human full length recombinant Mps-1 kinase (purchased from Invitrogen, Karslruhe, Germany, cat. no PV4071) was used. As substrate for the kinase reaction a biotinylated peptide of the amino-acid sequence […] (C-terminus in amide form, purchased from Biosynthan GmbH, Berlin) was used.
The concentration of Mps-1 in the assay was adjusted to the activity of the enzyme lot and was chosen appropriate to have the assay in the linear range, typical enzyme concentrations were in the range of about 1 nM (final conc. in the 5 μl assay volume).
The resulting mixture was incubated 1 h at 22° C. to allow the binding of the phosphorylated peptide to the anti-phospho(Ser/Thr)-Europium-antibody. Subsequently the amount of phosphorylated substrate was evaluated by measurement of the resonance energy transfer from the Europium-labelled anti-phospho(Ser/Thr) antibody to the Streptavidin-XLent.

| SMILES | IC50 [nM] |
| --- | --- |
| Cc1cc(-c2cnc3c(NCC4CC[S+]([O-])CC4)cc(Oc4ccc(F)cc4)nn23)ccc1C(=O)NC1CC1 (mixture of isomers) [Example 295B, N-cyclopropyl-4-[6-(4-fluorophenoxy)-8-({[(cis/trans)-1-oxidotetrahydro-2H-thiopyran-4-yl]methyl}amino)imidazo[1,2-b]pyridazin-3-yl]-2-methylbenzamide] | 0.2 |
| Cc1cc(-c2cnc3c(NCC4CC[S+]([O-])CC4)cc(Oc4cccc(F)c4)nn23)ccc1C(=O)NC1CC1 (mixture of isomers) [Example 298B, N-cyclopropyl-4-[6-(3-fluorophenoxy)-8-({[(cis/trans)-1-oxidotetrahydro-2H-thiopyran-4-yl]methyl}amino)imidazo[1,2-b]pyridazin-3-yl]-2-methylbenzamide] | 0.1 |

Same assay, conditions: Mps1 IC50 [nM], 10 μM ATP, 1 μM peptide substrate, 60 min at 22° C.

| IC50 [nM] | SMILES |
| --- | --- |
| 61.1 | CC=C(C)c1cc(NCC(C)(C)O)c2ncc(-c3ccc(-c4cnc(C5CC5)[nH]4)cc3)n2n1 (mixture of isomers) [Example 1, 1-({6-[(2E/Z)-But-2-en-2-yl]-3-[4-(2-cyclopropyl-1H-imidazol-5-yl)phenyl]imidazo[1,2-b]pyridazin-8-yl}amino)-2-methylpropan-2-ol] |
| 90.5 | CC=Cc1cc(NCC(C)(C)O)c2ncc(-c3ccc(-c4cnc(C5CC5)[nH]4)cc3)n2n1 (mixture of isomers) [Example 2, 1-({3-[4-(2-Cyclopropyl-1H-imidazol-5-yl)phenyl]-6-[(1E/Z)-prop-1-en-1-yl]imidazo[1,2-b]pyridazin-8-yl}amino)-2-methylpropan-2-ol] |
| 2.4 | CC=Cc1cc(NCCC(F)(F)F)c2ncc(-c3ccc(C(=O)NC4CC4)c(C)c3)n2n1 (mixture of isomers) [Example 23, N-cyclopropyl-2-methyl-4-{6-[(1E/Z)-prop-1-en-1-yl]-8-[(3,3,3-trifluoropropyl)amino]imidazo[1,2-b]pyridazin-3-yl}benzamide] |
| 23.8 | CC=Cc1cc(NCC(C)(C)O)c2ncc(-c3ccc(C(=O)NC4CC4)c(C)c3)n2n1 (mixture of isomers) [Example 24, N-cyclopropyl-4-{8-[(2-hydroxy-2-methylpropyl)amino]-6-[(1E/Z)-prop-1-en-1-yl]imidazo[1,2-b]pyridazin-3-yl}-2-methylbenzamide] |
| 0.2 | Cc1cc(-c2cnc3c(NCC4CC[S+]([O-])CC4)cc(Oc4ccc(Cl)cc4)nn23)ccc1C(=O)NC1CC1 (mixture of isomers) [Example 294B, 4-[6-(4-chlorophenoxy)-8-({[(cis/trans)-1-oxidotetrahydro-2H-thiopyran-4-yl]methyl}amino)imidazo[1,2-b]pyridazin-3-yl]-N-cyclopropyl-2-methylbenzamide] |
| 80.2 | c1cc(-c2cc(NCC3CCCCO3)c3ncc(-c4ccc(-c5cnc(C6CC6)[nH]5)cc4)n3n2)ccn1 (racemic) [Example 29, (RS) 3-[4-(2-Cyclopropyl-1H-imidazol-5-yl)phenyl]-6-(pyridin-4-yl)-N-(tetrahydro-2H-pyran-2-ylmethyl)imidazo[1,2-b]pyridazin-8-amine] |
| 2.1 | Cc1cc(-c2cnc3c(NCC4(C)CCCO4)cc(-c4ccncc4)nn23)ccc1C(=O)NC1CC1 (racemic) [Example 30, (RS)—N-cyclopropyl-2-methyl-4-[8-{[(2-methyltetrahydrofuran-2-yl)methyl]amino}-6-(pyridin-4-yl)imidazo[1,2-b]pyridazin-3-yl]benzamide] |
| 3 | Cc1cc(-c2cnc3c(NCC4COCCO4)cc(-c4ccncc4)nn23)ccc1C(=O)NC1CC1 (racemic) [Example 36, (RS)—N-cyclopropyl-4-{8-[(1,4-dioxan-2-ylmethyl)amino]-6-(pyridin-4-yl)imidazo[1,2-b]pyridazin-3-yl}-2-methylbenzamide] |
| < 1 | Cc1cc(-c2cnc3c(NCC4CCCCO4)cc(-c4ccncc4)nn23)ccc1C(=O)NC1CC1 (racemic) [Example 37, (RS)—N-cyclopropyl-2-methyl-4-{6-(pyridin-4-yl)-8-[(tetrahydro-2H-pyran-2-ylmethyl)amino]imidazo[1,2-b]pyridazin-3-yl}benzamide] |
| < 1 | Cc1cc(-c2cnc3c(NCC4CN(C)CCO4)cc(Sc4ccccc4)nn23)ccc1C(=O)NC1CC1 (racemic) [Example 56, (RS)—N-cyclopropyl-2-methyl-4-[8-{[(4-methylmorpholin-2-yl)methyl]amino}-6-(phenylsulfanyl)imidazo[1,2-b]pyridazin-3-yl]benzamide] |
| 0.8 | Cc1cc(-c2cnc3c(NCCC(F)(F)F)cc([S+]([O-])c4cccc(F)c4)nn23)ccc1C(=O)NC1CC1 (racemic) [Example 83B, (RS)—N-cyclopropyl-4-{6-[(3-fluorophenyl)sulfinyl]-8-[(3,3,3-trifluoropropyl)amino]imidazo[1,2-b]pyridazin-3-yl}-2-methylbenzamide] |
| 2.5 | Cc1cc(-c2cnc3c(NCC(C)C)cc(SCC4CCCO4)nn23)ccc1C(=O)NC1CC1 (racemic) [Example 194, (RS)—N-cyclopropyl-2-methyl-4-{8-[(2-methylpropyl)amino]-6-[(tetrahydrofuran-2-ylmethyl)sulfanyl]imidazo[1,2-b]pyridazin-3-yl}benzamide] |
| 72.7 | Cc1cc(-c2cnc3c(NCC(O)C(F)(F)F)cc(Cl)nn23)ccc1C(=O)NC1CC1 (racemic) [Example 205, (RS)-4-{6-Chloro-8-[(3,3,3-trifluoro-2-hydroxypropyl)amino]imidazo[1,2-b]pyridazin-3-yl}-N-cyclopropyl-2-methylbenzamide] |
| 6.2 | CSc1cc(NCC(O)C(F)(F)F)c2ncc(-c3ccc(C(=O)NC4CC4)c(C)c3)n2n1 (racemic) [Example 206, (RS)N-cyclopropyl-2-methyl-4-{6-(methylsulfanyl)-8-[(3,3,3-trifluoro-2-hydroxypropyl)amino]imidazo[1,2-b]pyridazin-3-yl}benzamide] |
| 2 | Cc1cc(-c2cnc3c(NCC(O)C(F)(F)F)cc(-c4ccnn4C)nn23)ccc1C(=O)NC1CC1 (racemic) [Example 208, (RS)—N-cyclopropyl-2-methyl-4-{6-(1-methyl-1H-pyrazol-5-yl)-8-[(3,3,3-trifluoro-2-hydroxypropyl)amino]imidazo[1,2-b]pyridazin-3-yl}benzamide] |
| < 1 | Cc1cc(-c2cnc3c(NCC(O)C(F)(F)F)cc(Sc4cccc(F)c4)nn23)ccc1C(=O)NC1CC1 (racemic) [Example 216, (RS)—N-cyclopropyl-4-{6-[(3-fluorophenyl)sulfanyl]-8-[(3,3,3-trifluoro-2-hydroxypropyl)amino]imidazo[1,2-b]pyridazin-3-yl}-2-methylbenzamide] |
| 2.6 | Cc1cc(-c2cnc3c(NCC4CN(C)CCO4)cc(-c4ccc(F)cc4)nn23)ccc1C(=O)NC1CC1 (racemic) [Example 229, (RS)—N-cyclopropyl-4-[6-(4-fluorophenyl)-8-{[(4-methylmorpholin-2-yl)methyl]amino}imidazo[1,2-b]pyridazin-3-yl]-2-methylbenzamide] |
| 1.2 | Cc1cc(-c2cnc3c(NCC(C)(C)O)cc(OCC4CC4(F)F)nn23)ccc1C(=O)NC1CC1 (racemic) [Example 240, (RS)—N-cyclopropyl-4-{6-[(2,2-difluorocyclopropyl)methoxy]-8-[(2-hydroxy-2-methylpropyl)amino]imidazo[1,2-b]pyridazin-3-yl}-2-methylbenzamide] |
